# According to patent US8906865B2, “Treatment of inflammation and/or endotoxic shock” (ISIS Innovation Limited, priority 2007, dated 2014):
# B1: Chemerin: 140 amino acid mouse Chemerin protein of Sequence ID no: 34 (protein, listed as Mus sp.)
# chain: TVGTEPELSETQRRSLQVALEEFHKHPPVQLAFQEIGVDRAEEVLFSAGTFVRLEFKLQQTNCPKKDWKKPECTIKPNGRRRKCLACIKMDPKGKILGRIVHCPILKQGPQDPQELQCIKIAQAGEDPHGYFLPGQFAFS
# Experiments:
# C57B16/J mice = assay: Intraperitoneal Chemerin15-mouse alone (no zymosan): peritoneal cell recruitment and TNFα; type: in vivo; settings: 0.32 ng/kg i.p., 4 h
# Protocol: Male C57B16/J mice (8-12 weeks) were injected intra-peritoneally with 0.5 ml PBS or 0.5 ml Chemerin15-mouse (0.32 ng/kg). After 4 hours three animals per treatment group were sacrificed and peritoneal cavities washed with 5 ml PBS-3 mM EDTA. Total cell counts were obtained using Trypan blue exclusion test. For determination of cellular composition (Neutrophils vs mononuclear phagocytes), cells were blocked with 2.4G2 anti-FcgRII/III mAB for 5 mins and stained with PE-conjugated anti-mouse Ly-6G and FITC-conjugated anti-mouse 7/4 mAB for 10 mins. Cells were fixed in 1% formaldehyde prior to FACS analysis with CellQuest software. Gates were constructed around two populations, the neutrophils (N; 7/4^high, Ly-6G^high) and inflammatory monocytes (Mo; 7/4^high, Ly-6G^low). C15 refer to Chemerin15-mouse. p<0.01 ** relative to PBS-treated. Ns refers to no statistically significant difference p>0.05.
# [1] = tested on: C57B16/J mice, zymosan-induced peritonitis; assay: Zymosan-induced peritonitis in mice; type: in vivo, mouse; settings: single i.p. dose; 4 h post-zymosan
# peritoneal macrophages = assay: Zymosan recognition / phagocytosis by macrophages (FITC-zymosan, FACS); type: cell-based, mouse
# Protocol: For in vitro recognition of zymosan by macrophages, peritoneal exudate cells were isolated by lavage with ice-cold 2 mM EDTA in PBS from mice that had been treated intraperitoneally 4 d before with Biogel beads (2% w/v). Macrophages were plated in 24-well plates at a density of 2.5×10^5 cells per well in Optimem medium. Cells were washed three times with medium before the addition of Fluorescein isothiocyanate (FITC)-labeled zymosan (Invitrogen) in recognition assays at macrophage/particle ratios of 10:1 in the presence of either 0.1 pM, 1 pM, 10 pM, 100 pM or 1 nM Chemerin15. Vehicle=control sample without Chemerin15. FITC-zymosan uptake was followed by FACS analysis and is expressed as a relative recognition index i.e the ratio of %® cells uptaking zymosan×the ratio of geometric means C15 treated macrophages/geometric mean of macrophages treated with vehicle.
# [2] = tested on: Murine peritoneal macrophages (PMΦ); assay: Macrophage cytokine mRNA levels by qRT-PCR (IL-10, TGFβ), normalized to HPRT; type: cell-based, mouse; settings: chemerin
# Protocol: FIGS. 1A-F—FIGS. 1A and 1B illustrate that Chemerin140 suppresses production of inflammatory mediators by macrophages in a proteolysis dependent fashion. Supernatants from macrophages or activated macrophages (treated with 100 ng/ml LPS and 20 ng/ml interferon gamma were assayed for cytokine expression using Luminex and ELISA assays. Cells were incubated in the presence or absence of recombinant murine chemerin or dexamethasone at the indicated doses and in the absence or presence of the protease inhibitor leupeptin ([…]). FIG. 1C—Macrophage cytokine mRNA levels were quantitated by qRT-PCR (IL-10, TGFβ) and normalized to HPRT. FIG. 1D—PMΦ were pre-treated with chemerin (0.1-1 pM)±pertussis toxin (PTX; 200 ng/ml) prior to LPS/IFNγ-challenge. FIG. 1E—PMΦ were pre-treated with chemerin (1 pM) for 1 h±PTX and then stimulated with LPS/IFNγ for 4 h, 8 h or 15 h. ***, p<0.001; **, p<0.01; *, p<0.05 relative to LPS/IFNγ-treated samples. ###, p<0.001; ##, p<0.01; #, p<0.05 relative to chemerin-treated samples. […]
# Total RNA was extracted using Qiagen RNeasy kits, reverse transcribed and subjected to qRT-PCR using the Sybr-Green method. Data was analysed using the 2-ΔΔCT method (Livak, K. J. & Schmittgen T. D. (2001), Methods 25:402-408).
Molecule,Monocyte or neutrophil migration after peptide alone (FIG. 9) (C57B16/J mice),Peritoneal TNFα after peptide alone (FIG. 9) (C57B16/J mice),Lowest dose with significant anti-inflammatory effects (FIG. 14B) [1],"Macrophage phagocytosis of zymosan (FIG. 15) (peritoneal macrophages; 0.1 pM-1 nM, FITC-zymosan)",Concentration of greatest induction of macrophage phagocytosis (peritoneal macrophages; tested 0.1 pM-1 nM),Induction of IL-10 mRNA expression (FIG. 1C) [2],Induction of TGFβ mRNA expression (FIG. 1C) [2]
AGEDPHGYFLPGQFA (listed as Mus sp.) [C15],does not cause monocyte or neutrophil migration,significant reduction in TNFα,4 pg/mouse,induces macrophage phagocytosis of zymosan,10 pM,–,–
B1,–,–,–,–,–,89%,54%
